Test system: CFTR transcripts carrying the 3849+10 kb C→T mutation in 091398K cells
Test: Splicing of native CFTR transcripts in 091398K nasal polyp epithelial cell line after transient transfection with splicing factors (DAC-30)
Assay type: cell-based
Settings: transfection efficiency ~60%, untreated 21%
Description: A polyp sample from a CF patient, compound heterozygous for the splicing mutation 3849+10 kb C→T and the W 1282X mutations was obtained. This patient suffered from nasal polyps and underwent nasal polypectomy. An epithelial cell line (091398K) was established from the polyp sample in collaboration with Dr. J. Yankaskas from the University of North Carolina. […] Thus a system in which the effect of splicing factors or) a native CFTR gene could be studied, was established.
Transient transfections of 091398 k cells with cellular factors were performed, using DAC-30. […] The viral factor E4-oRF3 slightly promoted exon inclusion and led to an increase in, the level of aberrantly spliced transcripts (21% to 28%). Thus, the mean effect could have reached ˜35%.

With “ASF/SF2: cellular SR protein splicing factor, overexpressed by transient transfection” the “level of aberrantly spliced CFTR transcripts after overexpression” value was 11%.

— patent US20020018768A1, “Control of gene expression” (YISSUM RESEARCH DEVELOPMENT COMPANY OF THE HEBREW …, priority 1999, published 2002)
